Assay results: PubChem BioAssay AID1259411 (Chemical Carcinogenesis Research Information System (CCRIS), 2018)
Active and inactive are the calls of the source. The rule behind the calls is not given here.

Test system: rodent carcinogenicity bioassays, tumor incidence
Assay: CCRIS carcinogenicity studies
Outline: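 Archive of carcinogenicity, mutagenicity, tumor promotion and tumor inhibition results drawn from journals, NCI reports and other sources, expert-reviewed; covers 1985-2011 and is no longer updated.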

`ClCC(Br)CBr` (stereo unspecified) was tested, and the carcinogen call (Species: MOUSE, Strain/Sex: B6C3F1/FEMALE, Route: GAVAGE, Dose: 0, 110, 209 MG/KG, TWA, Dose: 0, 110, 209 MG/KG, TWA, Tumor Site: Type of Lesion: STOMACH: SQUAMOUS CELL CARCINOMA) was “active; positive”, the carcinogen call (Species: MOUSE, Strain/Sex: B6C3F1/FEMALE, Route: INHALATION, Dose: 0, 0.6, 3.0 PPM 6 HR/D, 5 D/WK FOR 76-103 WK, Dose: 0, 0.6, 3.0 PPM 6 HR/D, 5 D/WK FOR 76-103 WK, Tumor Site: Type of Lesion: NASAL CAVITY: CARCINOMA (NOS), SQUAMOUS CELL CARCINOMA, SQUAMOUS CELL CARCINOMA OR SQUAMOUS CELL PAPILLOMA, ADENOCARCINO) was “active; positive” and the carcinogen call (Species: MOUSE, Strain/Sex: B6C3F1/MALE, Route: GAVAGE, Dose: 0, 114, 219 MG/KG, TWA, Dose: 0, 114, 219 MG/KG, TWA, Tumor Site: Type of Lesion: STOMACH: SQUAMOUS CELL CARCINOMA) was “active; positive”. The carcinogen call (Species: MOUSE, Strain/Sex: B6C3F1/MALE, Route: INHALATION, Dose: 0, 0.6, 3.0 PPM 6 HR/D, 5 D/WK FOR 76 WK, Dose: 0, 0.6, 3.0 PPM 6 HR/D, 5 D/WK FOR 76 WK, Tumor Site: Type of Lesion: NASAL CAVITY: CARCINOMA (NOS), SQUAMOUS CELL CARCINOMA, ADENOMATOUS POLYP (NOS), LUNG: ALVEOLAR/BRONCHIOLAR ADENOMA, ALV) was “active; positive”, the carcinogen call (Species: RAT, Strain/Sex: F344/FEMALE, Route: INHALATION, Dose: 0, 0.6, 3.0 PPM 6 HR/D, 5 D/WK FOR 84-103 WK, Dose: 0, 0.6, 3.0 PPM 6 HR/D, 5 D/WK FOR 84-103 WK, Tumor Site: Type of Lesion: NASAL CAVITY: ADENOMATOUS POLYP (NOS), ADENOMA (NOS), SQUAMOUS CELL PAPILLOMA, CARCINOMA (NOS), ADENOCARCINOMA (NOS), NA) was “active; positive” and the carcinogen call (Species: RAT, Strain/Sex: F344/MALE, Route: INHALATION, Dose: 0, 0.6, 3.0 PPM 6 HR/D, 5 D/WK FOR 84-103 WK, Dose: 0, 0.6, 3.0 PPM 6 HR/D, 5 D/WK FOR 84-103 WK, Tumor Site: Type of Lesion: NASAL CAVITY: ADENOMATOUS POLYP (NOS), ADENOMA (NOS), SQUAMOUS CELL PAPILLOMA, SQUAMOUS CELL CARCINOMA, CARCINOMA (NOS)) was “active; positive”. For the same compound, the carcinogen call (Species: RAT, Strain/Sex: OSBORNE-MENDEL/FEMALE, Route: GAVAGE, Dose: 0, 15, 29 MG/KG, TWA, Dose: 0, 15, 29 MG/KG, TWA, Tumor Site: Type of Lesion: STOMACH: SQUAMOUS CELL CARCINOMA, SQUAMOUS CELL PAPILLOMA, MAMMARY GLAND: ADENOCARCINOMA) was “active; positive” and the carcinogen call (Species: RAT, Strain/Sex: OSBORNE-MENDEL/MALE, Route: GAVAGE, Dose: 0, 15, 29 MG/KG, TWA, Dose: 0, 15, 29 MG/KG, TWA, Tumor Site: Type of Lesion: STOMACH: SQUAMOUS CELL CARCINOMA, MULTIPLE SITES: HEMANGIOSARCOMA OR HEMANGIOMA) was “active; positive”.
With `Cc1ccc(N)c(C)c1` the carcinogen call (Species: MOUSE, Strain/Sex: CD-1/FEMALE, Route: ORAL, Tumor Site: Type of Lesion: LUNG) was “active; positive”.
`CC1CC(C)(C)CC(OOC(C)(C)C)(OOC(C)(C)C)C1` (stereo unspecified) was tested, and the carcinogen call (Species: MOUSE, Strain/Sex: B6C3F1/FEMALE, Route: ORAL, Dose: 0, 0.25, 0.5% IN DIET FOR 78 WK (STUDY DURATION: 83 WK), Dose: 0, 0.25, 0.5% IN DIET FOR 78 WK (STUDY DURATION: 83 WK)) was “inactive; negative” and the carcinogen call (Species: MOUSE, Strain/Sex: B6C3F1/MALE, Route: ORAL, Dose: 0, 0.25, 0.5% IN DIET FOR 78 WK (STUDY DURATION: 83 WK), Dose: 0, 0.25, 0.5% IN DIET FOR 78 WK (STUDY DURATION: 83 WK)) was “inactive; negative”.
In the case of `Nc1ccc2c(c1)Cc1ccccc1-2`, the carcinogen call (Species: MOUSE, Strain/Sex: MALE,FEMALE, Route: DERMAL, Dose: 4% SOLN IN ACETONE, 90 APPLICATIONS (TOTAL DOSE: 270 MG), Tumor Site: Type of Lesion: LIVER: HEPATOMA, INTESTINES) is reported as “active; positive”, the carcinogen call (Species: RAT, Strain/Sex: F344/MALE, Route: INJECTION, Dose: 0, 1 UMOL IN 0.5 ML OF SOLUTION CONTAINING 0.4 ML PHOSPHATE BUFFERED SALINE/ GENTAMYCIN (PH 7) AND 0.1 ML DMSO INJECTED) is reported as “inactive; negative” and the carcinogen call (Species: RAT, Strain/Sex: HOLTZMAN/FEMALE, Route: ORAL, Dose: 1.62 MMOL/KG IN DIET, Tumor Site: Type of Lesion: MAMMARY GLAND, EAR (DUCT)) is reported as “active; positive”. The carcinogen call (Species: RAT, Strain/Sex: HOLTZMAN/MALE, Route: ORAL, Dose: 1.62 MMOL/KG IN DIET, Tumor Site: Type of Lesion: LIVER, EAR (DUCT), INTESTINES (SMALL), Tumor Site: Type of Lesion: LIVER, EAR (DUCT), INTESTINES (SMALL)) was “active; positive” and the carcinogen call (Species: RAT, Strain/Sex: WISTAR/MALE, Route: DERMAL, Dose: 4% SOLN IN ACETONE 3/WK FOR 30 WK (TOTAL DOSE: 270 MG), Tumor Site: Type of Lesion: LIVER: HEPATOCELLULAR CARCINOMA, EAR (ZYMBAL GLAND): CARCINOMA) was “active; positive”.
With `O.O=S(=O)([O-])[O-].[Mn+2]` the carcinogen call (Species: MOUSE, Strain/Sex: B6C3F1/FEMALE, Route: ORAL, Dose: 0, 1500, 5000, 15000 PPM IN DIET (0; 60; 200; 615 MG/KG/D) FOR 105 WK (STUDY DURATION: 105 WK), Dose: 0, 1500, 5000, 15000 PPM IN DIET (0; 60; 200; 615 MG/KG/D) FOR 105 WK (STUDY DURATION: 105 WK), Tumor Site: Type of Lesion: THYROID GLAND (FOLLICULAR CELL): ADENOMA) was “equivocal”, the carcinogen call (Species: MOUSE, Strain/Sex: B6C3F1/MALE, Route: ORAL, Dose: 0, 1500, 5000, 15000 PPM IN DIET (0; 60; 200; 615 MG/KG/D) FOR 105 WK (STUDY DURATION: 105 WK), Dose: 0, 1500, 5000, 15000 PPM IN DIET (0; 60; 200; 615 MG/KG/D) FOR 105 WK (STUDY DURATION: 105 WK), Tumor Site: Type of Lesion: THYROID GLAND (FOLLICULAR CELL): ADENOMA) was “equivocal” and the carcinogen call (Species: RAT, Strain/Sex: F344/FEMALE, Route: ORAL, Dose: 0, 1500, 5000, 15000 PPM IN DIET (0; 70; 230; 715 MG/KG/D) FOR 2 YR (STUDY DURATION: 2 YR), Dose: 0, 1500, 5000, 15000 PPM IN DIET (0; 70; 230; 715 MG/KG/D) FOR 2 YR (STUDY DURATION: 2 YR)) was “inactive; negative”. For the same compound, the carcinogen call (Species: RAT, Strain/Sex: F344/MALE, Route: ORAL, Dose: 0, 1500, 5000, 15000 PPM IN DIET (0; 60; 200; 615 MG/KG/D) FOR 2 YR (STUDY DURATION: 2 YR), Dose: 0, 1500, 5000, 15000 PPM IN DIET (0; 60; 200; 615 MG/KG/D) FOR 2 YR (STUDY DURATION: 2 YR)) was “inactive; negative”.
In the case of `O[C@@H]1[C@@H]2O[C@@H]2c2c(cc3ccc4cccc5ccc2c3c45)[C@H]1O`, the carcinogen call (Species: MOUSE, Strain/Sex: ICR/FEMALE, Route: INTRAPERITONEAL, Dose: 0, 25 NMOL (TOTAL DOSE) ADMINISTERED IN DOSES OF 1/7, 2/7, AND 4/7 ON DAYS 1, 7, AND 15 OF LIFE, RESPECTIVELY (STUDY DUR, Tumor Site: Type of Lesion: LUNG: TUMOR) is reported as “active; positive”, the carcinogen call (Species: MOUSE, Strain/Sex: ICR/FEMALE, Route: INTRAPERITONEAL, Dose: 0;25 NMOL TOTAL DOSE INJECTED IN DOSES OF 1/7 ON DAY 1, 2.7 ON DAY 8, AND 4/7 ON DAY 15 OF LIFE (STUDY DURATION: 35 WK), Tumor Site: Type of Lesion: LUNG: TUMOR) is reported as “active; positive” and the carcinogen call (Species: MOUSE, Strain/Sex: ICR/MALE, Route: INTRAPERITONEAL, Dose: 0, 25 NMOL TOTAL DOSE INJECTED IN DOSES OF 1/7 ON DAY 1, 2/7 ON DAY 8, AND 4/7 ON DAY 15 OF LIFE (STUDY DURATION: 35 WK), Tumor Site: Type of Lesion: LUNG:TUMOR) is reported as “active; positive”. For the same compound, the carcinogen call (Species: MOUSE, Strain/Sex: ICR/MALE, Route: INTRAPERITONEAL, Dose: 0, 25 NMOL (TOTAL DOSE) ADMINISTERED IN DOSES OF 1/7, 2/7, AND 4/7 ON DAYS 1, 7, AND 15 OF LIFE, RESPECTIVELY (STUDY DUR, Tumor Site: Type of Lesion: LUNG: TUMOR) was “active; positive”, the carcinogen call (Species: RAT, Strain/Sex: STRAIN-CD/FEMALE, Route: INJECTION, Dose: 0, 2.04 UMOL IN 0.1 ML DMSO 3 INJECTIONS INTO MAMMARY TISSUE BENEATH THE 3 LEFT THORACIC NIPPLES ON THE NEXT DAY PROCEDU, Tumor Site: Type of Lesion: MAMMARY GLAND: TUMOR) was “active; positive” and the carcinogen call (Species: RAT, Strain/Sex: STRAIN-CD/FEMALE, Route: INJECTION, Dose: 0, 2.04 UMOL IN 0.1 ML DMSO INJECTED BENEATH EACH THE THREE LEFT THORACIC NIPPLES THEN ON THE NEXT DAY BENEATH EACH OF T, Tumor Site: Type of Lesion: MAMMARY GLAND: TUMOR) was “active; positive”.
